Experiments:
[1] = system: Leishmania mexicana; test: Antileishmanial activity against Leishmania mexicana intracellular amastigotes; format: functional, organism-based
[2] = Cytotoxicity against mouse J774.A1 cells assessed as reduction in cell viability; format: toxicity, cell-based
[3] = Selectivity index, ratio of EC50 for mouse J774.A1 cells to EC50 for Leishmania mexicana intracellular amastigotes; format: toxicity, cell-based; settings: read-out: Ratio EC50

Structure (SMILES) | EC50 [1] [µM] | EC50 [2] [µM] | selectivity ratio [3]
Cc1noc(C)c1CC(=O)N1CCOc2c(cc(-c3ccccc3Cl)cc2OCC2CCCN(C)C2)C1 (configuration not stated) | 2.9 | 14.7 | 5.1
Cc1cccc(CN2CCOc3c(cc(-c4ccc(C)s4)cc3OCC3CCCN(C)C3)C2)n1 (configuration not stated) | 5.3 | – | –
Cc1noc(C)c1CC(=O)N1CCOc2c(O)cc(-c3cccc(Cl)c3)cc2C1 | 15.5 | – | –
Cc1ccc(-c2cc3c(c(OCC4CCCN(C)C4)c2)OCCN(C(=O)Cc2ccc(F)cc2)C3)s1 (configuration not stated) | 4.9 | – | –
CN1CCCC(COc2cc(-c3cccc(Cl)c3)cc3c2OCCN(C(=O)c2cccs2)C3)C1 (configuration not stated) | 4.6 | – | –
COc1ccccc1C(=O)N1CCOc2c(cc(-c3ccc(C)s3)cc2OCC2CCCN(C)C2)C1 (configuration not stated) | 6.1 | – | –
Cc1ccc(-c2cc3c(c(OCC4CCCN(C)C4)c2)OCCN(C(=O)C2CCC2)C3)s1 (configuration not stated) | 4.8 | – | –
COc1ccc(C(=O)N2CCOc3c(cc(-c4ccc(C)s4)cc3OCC3CCCN(C)C3)C2)c(OC)c1 (configuration not stated) | 3.9 | – | –
CC1=NN(C)CC1c1cc2c(c(OCC3CCCN(C)C3)c1)OCCN(C(=O)Cc1c(C)noc1C)C2 (configuration not stated) | 37.5 | > 50 | –
Cc1ccc(-c2cc3c(c(OCC4CCCN(C)C4)c2)OCCN(C(=O)c2cccc(Cn4cccn4)c2)C3)s1 (configuration not stated) | 4.6 | – | –
Cc1noc(C)c1CC(=O)N1CCOc2c(cc(Br)cc2OCC2CCCN(C)C2)C1 (configuration not stated) | – | > 50 | –
Cc1noc(C)c1CC(=O)N1CCOc2c(cc(-c3ccn(C)n3)cc2OCC2CCCN(C)C2)C1 (configuration not stated) | 16.5 | > 50 | –
Cc1ccc(-c2cc3c(c(OCC4CCCN(C)C4)c2)OCCN(C(=O)Cc2c(C)noc2C)C3)s1 (configuration not stated) | 2.3 | 4.7 | 2
CN1CCCC(COc2cc(-c3cccc(Cl)c3)cc3c2OCCN(C(=O)Cc2ccsc2)C3)C1 (configuration not stated) | 11.3 | – | –
Cc1noc(C)c1CC(=O)N1CCOc2c(cc(-c3cccnc3)cc2OCC2CCCN(C)C2)C1 (configuration not stated) | 29 | > 50 | –
Cc1noc(C)c1CC(=O)N1CCOc2c(cc(CC3CC3)cc2OCC2CCCN(C)C2)C1 (configuration not stated) | – | > 50 | –
CN1CCCC(COc2cc(-c3cccc(Cl)c3)cc3c2OCCNC3)C1 (configuration not stated) | 2.2 | – | –
Cc1ccc(-c2cc(O)c3c(c2)CN(C(=O)Cc2c(C)noc2C)CCO3)s1 | 22.8 | – | –
Cc1noc(C)c1CC(=O)N1CCOc2c(cc(-c3ccnn3C)cc2OCC2CCCN(C)C2)C1 (configuration not stated) | 25 | > 50 | –
Cc1ccc(-c2cc3c(c(OCC4CCCN(C)C4)c2)OCCN(Cc2cn(C)nc2C)C3)s1 (configuration not stated) | 5.8 | – | –
Cc1noc(C)c1CC(=O)N1CCOc2c(cc(-c3cccc(F)c3)cc2OCC2CCCN(C)C2)C1 (configuration not stated) | 2.6 | 11.5 | 4.4
Cc1ccc(-c2cc3c(c(OCC4CCCN(C)C4)c2)OCCN(C(=O)C2CC2)C3)s1 (configuration not stated) | 10.2 | – | –
Cc1noc(C)c1CC(=O)N1CCOc2c(cc(-c3cccc(Cl)c3)cc2OCC2CCCN(C)C2)C1 (configuration not stated) | 0.9 | 3.2 | 3.6
Cc1noc(C)c1CC(=O)N1CCOc2c(cc(-c3ccc(Cl)cc3)cc2OCC2CCCN(C)C2)C1 (configuration not stated) | 1.6 | 5.5 | 3.4
Cc1noc(C)c1CC(=O)N1CCOc2c(O)cc(-c3cccc(F)c3)cc2C1 | 29.5 | – | –
COc1cccc(C(=O)N2CCOc3c(cc(-c4ccc(C)s4)cc3OCC3CCCN(C)C3)C2)c1 (configuration not stated) | 4.4 | – | –
CCCCCCCCCCCCCCCCOP(=O)([O-])OCC[N+](C)(C)C [MILTEFOSINE] | 3.2 | – | –
Cc1ccc(-c2cc3c(c(OCC4CCCN(C)C4)c2)OCCNC3)s1 (configuration not stated) | 3.6 | – | –

Reference: ChEMBL document CHEMBL6083270, “Synthesis and biological evaluation of 4,7,9-trisubstituted benzoxazepines as antileishmanial agents” (Bioorg Med Chem Lett, 2024)
